SMILES strings stand for the structures. ≈ marks a conversion by molar mass, not a printed value. Where two headings read alike, the source gives them in different places. Bounds are passed on as bounds.

Data set [1] relates to Asexual parasites of P. falciparum strain 3D7. The experiment in a line: In vitro drug activity on asexual parasites (SYBR Green assay). The format is cell-based. As to conditions: Plasmodium falciparum, P. falciparum 3D7 asexual stage, 72 h, read-out: Asexual EC50. As for the experimental part: Cell culture. Asexual parasites of P. falciparum strain 3D7 were cultured as described previously [Trager W, et al., Journal of Parasitology 2005, 91: 484-486]. Stage III-V gametocytes were selected and enriched with 3-day treatment with 50 mM N-acetylglucosamine (NAG) and the following Percoll density gradient centrifugation after gametocyte production [Tanaka T Q, et al., Molecular and Biochemical Parasitology, 2011, 177: 160-163]. Gametocytes of HB3 and Dd2 strains were produced and then set up for assay in a similar process. HepG2 cells (ATCC, cat. no. 77400) were cultured in 175-cm^2 tissue culture flasks with 30 ml growth medium at 37° C. in a 5% CO2 humidified atmosphere. Growth medium was made with Dulbecco's Modified Eagle Medium with 10% fetal bovine serum (FBS). Growth medium was replaced every other day and cells were passed at 75% confluence.
Asexual parasites of P. falciparum strain 3D7 were cultured as described previously (Trager, W. et al., J. Parasitol. 2005, 91(3): 484-486). Drug activity on asexual stage parasites was tested using a SYBR Green assay as described previously (Eastman, R. T. et al., Antimicrob. Agents Chemother. 2013, 57(1): 425-435; Smilkstein, M. et al., Antimicrob. Agents Chemother. 2004, 48(5): 1803-1806). Briefly, parasites were diluted to 0.5% parasitemia in complete culture medium with 2% hematocrit and drugs diluted in DMSO (<0.5%) and were loaded into a 96-well plate (200 μl/well). No drug and RBC alone wells were included as positive and background controls, respectively, and each testing condition was examined in duplicated. After 72 h incubation under the standard culture condition and a freeze-thaw lysis step at −80° C. and room temperature, 100 μl/well of lysis buffer containing SYBR Green I was added to the parasite culture and incubated for 30 min at room temperature. The fluorescence of each well was measured at 520 nm following excitation at 490 nm using a FLUOstar Optima™ microplate reader (BMG Labtech).
Compounds were screened against gametocytes and asexual parasites as described in Examples 1 and 2.

Data set [2] in a line: Microsomal stability (rat). As to conditions: rat microsomes. Type of data set: in vitro ADME.
The nature of another data set: Solubility pH 7.4. Type of data set: physicochemical. Particulars: aqueous buffer.
Where [3] appears, read: Table 1, read-out: Microsomal Stability (rat) T1/2.

A word on the EC50: it is the midpoint of the concentration-response curve. In general, solubility refers to how much of the substance goes into solution per volume. Lower therefore signals a poorly soluble substance. Take `Cn1c(=N)n([C@H]2CC[C@@H](N3CCOCC3)CC2)c2c3cc(-c4ccc(Cl)cc4)ccc3ncc21` [Compound 59, 8-(4-chlorophenyl)-3-methyl-1-((1s,4s)-4-morpholinocyclohexyl)-1,3-dihydro-2H-imidazo[4,5-c]quinolin-2-imine]: in data set [1] (Table 1), the EC50 is 13.2 µM. For the same compound, the half-life in data set [2] (setting [3]) is above 30 min. Also, in the data set “Solubility pH 7.4” (Table 1), the solubility was above 47 µg/mL.

`Cn1c(=N)n(-c2cc(C#N)ccc2F)c2c3cc(-c4ccc(Cl)cc4)ccc3ncc21` [Compound 10, 3-(8-(4-chlorophenyl)-2-imino-3-methyl-2,3-dihydro-1H-imidazo[4,5-c]quinolin-1-yl)-4-fluorobenzonitrile]: the EC50 in data set [1] (Table 1) came to 0.0244 µM. The half-life in data set [2] (setting [3]) is above 30 min. This compound displayed a solubility in “Solubility pH 7.4” (Table 1) below 1 µg/mL.

Turning to `Cc1cc(NS(C)(=O)=O)c(C#N)cc1-n1c(=N)n(C)c2cnc3ccc(-c4ccc(Cl)cc4)cc3c21` [Compound 123, N-(4-(8-(4-chlorophenyl)-2-imino-3-methyl-2,3-dihydro-1H-imidazo[4,5-c]quinolin-1-yl)-2-cyano-5-methylphenyl)methanesulfonamide], the half-maximal effective concentration (EC50) in data set [1] (Table 1) came out at 0.0886 µM. Besides, the half-life in data set [2] (setting [3]) was above 30 min. For the same compound, the solubility in the data set “Solubility pH 7.4” (Table 1) was below 1 µg/mL.

As for `Cc1ccc(C#N)cc1-n1c(=N)n(C)c2cnc3ccc(-c4ccc5c(c4)CC(=O)N5)cc3c21` [Compound 3, 3-(2-imino-3-methyl-8-(2-oxoindolin-5-yl)-2,3-dihydro-1H-imidazo[4,5-c]quinolin-1-yl)-4-methylbenzonitrile], in data set [1] (Table 1), the 50% effective concentration (EC50) is 0.0203 µM. In data set [2] (setting [3]), the half-life is above 30 min. The solubility in the data set “Solubility pH 7.4” (Table 1) came out at 3.6 µg/mL (≈ 8.1 µM).

Take `COc1ccccc1-n1c(=N)n(C)c2cnc3ccc(-c4ccc(Cl)cc4)cc3c21` [Compound 82, 8-(4-chlorophenyl)-1-(2-methoxyphenyl)-3-methyl-1,3-dihydro-2H-imidazo[4,5-c]quinolin-2-imine]: the half-maximal effective concentration (EC50) in data set [1] (Table 1) worked out at 1.67 µM. Moreover, the half-life in data set [2] (setting [3]) was above 30 min. Besides, in the data set “Solubility pH 7.4” (Table 1), the solubility is above 41 µg/mL.

In the case of `Cc1cc(N2CCC(O)CC2)c(C#N)cc1-n1c(=N)n(C)c2cnc3ccc(-c4ccc(Cl)cc4)cc3c21` [Compound 114, 5-(8-(4-chlorophenyl)-2-imino-3-methyl-2,3-dihydro-1H-imidazo[4,5-c]quinolin-1-yl)-2-(4-hydroxypiperidin-1-yl)-4-methylbenzonitrile], the half-maximal effective concentration (EC50) in data set [1] (Table 1) turned out to be 0.0553 µM. For the same compound, the half-life in data set [2] (setting [3]) is above 30 min. The compound further registered a solubility in the data set “Solubility pH 7.4” (Table 1) below 1 µg/mL.

For `Cc1ncncc1-n1c(=N)n(C)c2cnc3ccc(-c4ccc(Cl)c(C(F)(F)F)c4)cc3c21`, in data set [1] (Table 3), the concentration giving a half-maximal response (EC50) turned out to be 0.16 µM. The half-life in data set [2] (Table 3, read-out: Microsomal Stability (rat) T1/2) was above 30 min. The same compound had a solubility in the data set “Solubility pH 7.4” (Table 3) of 10.6 µg/mL (≈ 22.6 µM).

For `Cc1cc(NCCN(C)C)c(C#N)cc1-n1c(=N)n(C)c2cnc3ccc(-c4ccc(Cl)cc4)cc3c21` [Compound 113, 5-(8-(4-chlorophenyl)-2-imino-3-methyl-2,3-dihydro-1H-imidazo[4,5-c]quinolin-1-yl)-2-((2-(dimethylamino)ethyl)amino)-4-methylbenzonitrile], the 50% effective concentration (EC50) in data set [1] (Table 1) stood at 0.545 µM. The half-life in data set [2] (setting [3]) was above 30 min. Besides, the solubility in “Solubility pH 7.4” (Table 1) is above 50 µg/mL.

On to `Cc1ccc(C#N)cc1-n1c(=N)n(C)c2cnc3ccc(-c4ccc(C(N)=O)s4)cc3c21` [Compound 1, 5-(1-(5-cyano-2-methylphenyl)-2-imino-3-methyl-2,3-dihydro-1H-imidazo[4,5-c]quinolin-8-yl)thiophene-2-carboxamide], for which the concentration for a half-maximal effect (EC50) in data set [1] (Table 1) turned out to be 0.00836 µM. Moreover, in data set [2] (setting [3]), the half-life was above 30 min. The compound further returned a solubility in “Solubility pH 7.4” (Table 1) of 14.2 µg/mL (≈ 32.4 µM).

Turning to `Cc1ncc(C#N)cc1-n1c(=N)n(C)c2cnc3ccc(-c4ccc(Cl)cc4)cc3c21` [Compound 22, 5-(8-(4-chlorophenyl)-2-imino-3-methyl-2,3-dihydro-1H-imidazo[4,5-c]quinolin-1-yl)-6-methylnicotinonitrile], in data set [1] (Table 1), the EC50 came to 0.0623 µM. In addition, the half-life in data set [2] (setting [3]) was above 30 min. Moreover, the solubility in “Solubility pH 7.4” (Table 1) was 3.5 µg/mL (≈ 8.24 µM).

Turning to `Cc1ccccc1-c1ccc2ncc3c(c2c1)n(-c1cc(C#N)ccc1C)c(=N)n3C` [Compound 61, 3-(2-imino-3-methyl-8-(o-tolyl)-2,3-dihydro-1H-imidazo[4,5-c]quinolin-1-yl)-4-methylbenzonitrile], the concentration for a half-maximal effect (EC50) in data set [1] (Table 1) is 1.72 µM. Moreover, the half-life in data set [2] (setting [3]) is 10 min. The compound also had a solubility in the data set “Solubility pH 7.4” (Table 1) of 19.2 µg/mL (≈ 47.6 µM).

Consider `Cn1c(=N)n(C2CCN(C3CCOCC3)CC2)c2c3cc(-c4ccc(Cl)cc4)ccc3ncc21` [Compound 57, 8-(4-chlorophenyl)-3-methyl-1-(1-(tetrahydro-2H-pyran-4-yl)piperidin-4-yl)-1,3-dihydro-2H-imidazo[4,5-c]quinolin-2-imine], for which the 50% effective concentration (EC50) in data set [1] (Table 1) was 2.52 µM. The half-life in data set [2] (setting [3]) was above 30 min. The same compound returned a solubility in “Solubility pH 7.4” (Table 1) above 47 µg/mL.

With `COc1cccc(-n2c(=N)n(C)c3cnc4ccc(-c5ccc(Cl)cc5)cc4c32)c1` [Compound 64, 8-(4-chlorophenyl)-1-(3-methoxyphenyl)-3-methyl-1,3-dihydro-2H-imidazo[4,5-c]quinolin-2-imine], the EC50 in data set [1] (Table 1) was found to be 1.3 µM. Besides, in data set [2] (setting [3]), the half-life is above 30 min. In “Solubility pH 7.4” (Table 1), this compound showed a solubility of 20.8 µg/mL (≈ 50.1 µM).

`Cn1c(=N)n(-c2cc(C#N)ccc2OC(F)(F)F)c2c3cc(-c4ccc(Cl)cc4)ccc3ncc21` [Compound 54, 3-(8-(4-chlorophenyl)-2-imino-3-methyl-2,3-dihydro-1H-imidazo[4,5-c]quinolin-1-yl)-4-(trifluoromethoxy)benzonitrile]: the EC50 in data set [1] (Table 1) worked out at 1.42 µM. In addition, the half-life in data set [2] (setting [3]) was above 30 min. In the data set “Solubility pH 7.4” (Table 1), this compound registered a solubility below 1 µg/mL.

Take `Cc1ccc(C#N)cc1-n1c(=N)n(C)c2cnc3ccc(C#Cc4ccccc4)cc3c21` [Compound 154, 3-(2-imino-3-methyl-8-(phenylethynyl)-2,3-dihydro-H-imidazo[4,5-c]quinolin-1-yl)-4-methylbenzonitrile]: the EC50 in data set [1] (Table 1) came out at 1.75 µM. Moreover, the half-life in data set [2] (setting [3]) was above 30 min. In the data set “Solubility pH 7.4” (Table 1), this compound gave a solubility of 1.4 µg/mL (≈ 3.39 µM).

Turning to `Cc1ccc(C#N)cc1-n1c(=N)n(Cc2ccccc2)c2cnc3ccc(-c4ccc(Cl)cc4)cc3c21` [Compound 94, 3-(3-benzyl-8-(4-chlorophenyl)-2-imino-2,3-dihydro-1H-imidazo[4,5-c]quinolin-1-yl)-4-methylbenzonitrile], in data set [1] (Table 1), the half-maximal effective concentration (EC50) worked out at 9.17 µM. Further, the half-life in data set [2] (setting [3]) was above 30 min. Moreover, the solubility in the data set “Solubility pH 7.4” (Table 1) was below 1 µg/mL.

Consider `Cn1cc(-n2c(=N)n(C)c3cnc4ccc(-c5ccc(Cl)cc5)cc4c32)cn1` [Compound 13, 8-(4-chlorophenyl)-3-methyl-1-(1-methyl-1H-pyrazol-4-yl)-1,3-dihydro-2H-imidazo[4,5-c]quinolin-2-imine], for which the EC50 in data set [1] (Table 1) is 0.477 µM. In data set [2] (setting [3]), the half-life was above 30 min. For the same compound, in “Solubility pH 7.4” (Table 1), the solubility is above 38 µg/mL.

As for `Cc1ccc(S(C)(=O)=O)cc1-n1c(=N)n(C)c2cnc3ccc(-c4ccc(Cl)cc4)cc3c21` [Compound 122, 8-(4-chlorophenyl)-3-methyl-1-(2-methyl-5-(methylsulfonyl)phenyl)-1,3-dihydro-2H-imidazo[4,5-c]quinolin-2-imine], the EC50 in data set [1] (Table 1) worked out at 1.61 µM. The half-life in data set [2] (setting [3]) is above 30 min. Moreover, the solubility in the data set “Solubility pH 7.4” (Table 1) was above 47 µg/mL.

As to `Cn1c(=N)n(C2CC(N3CCNCC3)C2)c2c3cc(-c4ccc(Cl)cc4)ccc3ncc21` (stereo not drawn) [Compound 98, 8-(4-chlorophenyl)-3-methyl-1-(3-(piperazin-1-yl)cyclobutyl)-1,3-dihydro-2H-imidazo[4,5-c]quinolin-2-imine], the 50% effective concentration (EC50) in data set [1] (Table 1) stood at 2.55 µM. Moreover, the half-life in data set [2] (setting [3]) is above 30 min. The compound also had a solubility in the data set “Solubility pH 7.4” (Table 1) above 44 µg/mL.

Values taken from patent publication US20210188843A1, “QUINOLINE COMPOUNDS AND THEIR PREPARATION AND USE AS ANTIMALARIAL AGENTS” (The United States of America,as represented by the …, priority 2018, published 2021).
